Legend:
PRMT1 [1] = tested on: PRMT1; set-up: method as in earlier work; details: binary binding to PRMT1; ref 2 (supplement; Feng et al. 2011); cited from earlier work
PRMT1 [2] = details: PRMT1 catalysis, cited from earlier work
PRMT1 [3] = molecular target: PRMT1 (Homo sapiens, UniProt Q99873); experiment: Stopped flow fluorescence assay of PRMT1 inhibition ([PRMT1] 0.2 µM, [SAM] 3.5 µM, [H4FL] 0.4 µM); assay type: biochemical;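 also: Stopped-flow traces of fluorescent H4FL peptide quenched on binding PRMT1 and restored on release, recorded 900 s, averaged over repeated drives and fit to a double-exponential model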
Sequence of PRMT1 (Homo sapiens, UniProt Q99873) (Q99873 29-371): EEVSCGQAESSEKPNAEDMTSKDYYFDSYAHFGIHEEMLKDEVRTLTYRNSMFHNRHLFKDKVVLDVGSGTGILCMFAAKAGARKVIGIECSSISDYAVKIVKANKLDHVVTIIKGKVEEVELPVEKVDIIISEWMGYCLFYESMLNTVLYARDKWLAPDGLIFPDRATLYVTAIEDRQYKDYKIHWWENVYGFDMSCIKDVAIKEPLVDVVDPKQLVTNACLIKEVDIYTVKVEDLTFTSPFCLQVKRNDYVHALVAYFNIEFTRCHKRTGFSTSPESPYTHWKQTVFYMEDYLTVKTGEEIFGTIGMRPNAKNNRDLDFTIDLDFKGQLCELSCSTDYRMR
Description: To obtain the IC50 of a specific inhibitor, the relative activities of the enzyme in presence of different concentrations of the inhibitor are required (equation 1).[37] […] By adding different concentrations of the inhibitor to the reaction mixture, the relative activity of the enzyme can be obtained by normalizing K to the reaction rate without the inhibitor, and then calculate the IC50 value using equation 1. In our stopped flow fluorescence assay, the reaction rate of Phase I and Phase II can be obtained by approximating and deriving the double-exponential equation (equation 2). In Phase I, during a very short period of time (where t is small), the curve is nearly linear, and the exponential equation can be approximately described as F1 = a · (−k1) · t. Therefore, the derivation of F1 equals –k1∙a, which is the slope of Phase I. Similarly, the curve of Phase II at early stage can be approximately described as F2 = b · (−k2) · t. This derivation of F2 equals –k2∙b, which is the slope of Phase II. The slopes at various inhibitor concentrations, normalized to the slope in the absence of inhibitor, can be used to obtain the corresponding relative enzyme activity from which the potency value (IC50) of the inhibitor can be calculated with equation 1.
In a stopped flow fluorescence assay, the binding of H4FL to PRMT1 (or the PRMT1—cofactor complex) quenches the peptide fluorescence, while release of the peptide restores the fluorescence. […] The widths of the entrance and exit slits of the monochromator were set to 0.5 mm. An equal volume of samples from two syringes was driven into the observation cell for mixing measurements. The H4FL concentration in all experiments was 0.4 μM. […] The fluorescent signal was recorded for 900 seconds, with 10,000 data points in total. Data from four to six drives were collected and averaged for each curve.
After averaging the shot data, the association time courses were fitted to a double-exponential function (equation 2) using GraphPad Prism (CA, USA). […] F is the fluorescence intensity at time t, k1, and k2 are the rate constants for Phase I and Phase II, a is the amplitude of the fluorescence change for k1, and b is the amplitude of the fluorescence change for k2. Simulation curves based on the values of a, b, k1, and k2 at fixed c = 1 were produced using Matlab. The IC50 value of inhibitors is determined by equation 1 using GraphPad Prism (CA, USA).

acetyl-SGRGKGGKGK(FL)GKGGAKRHRK [H4FL]
koff (PRMT1 [1]): 333 s⁻¹ | kon (PRMT1 [1]): 4e+07 M⁻¹ s⁻¹ | kcat (PRMT1 [2]): 0.00717 ± 0.00017 s⁻¹ | Km (PRMT1 [2]; read-out: Km of peptide substrate): 0.5 ± 0.05 µM

acetyl-SGRme2aGKGGKGLGKGGAKRHRKVL [H4R3me2a]
-b·k2 (slope of Phase II) (PRMT1 [3]; [H4R3Me2a] 0.025 µM): 0.000708 ± 1.5e-06 s⁻¹ | a (amplitude, Phase I) (PRMT1 [3]; [H4R3Me2a] 0.025 µM): 0.1544 ± 3.91E-04 | a·k1 (slope of Phase I) (PRMT1 [3]; [H4R3Me2a] 0.025 µM): 0.0108 ± 5.74e-05 s⁻¹ | b (amplitude, Phase II) (PRMT1 [3]; [H4R3Me2a] 0.025 µM): -0.1795 ± 1.47E-04 | k1 (rate constant, Phase I) (PRMT1 [3]; [H4R3Me2a] 0.025 µM): 0.06982 ± 3.27E-04 s^-1 | k2 (rate constant, Phase II) (PRMT1 [3]; [H4R3Me2a] 0.025 µM): 0.003946 ± 7.72E-06 s^-1 | -b·k2 (slope of Phase II) (PRMT1 [3]; [H4R3Me2a] 0.05 µM): 0.00064 ± 1.51e-06 s⁻¹ | a (amplitude, Phase I) (PRMT1 [3]; [H4R3Me2a] 0.05 µM): 0.1589 ± 4.16E-04 | a·k1 (slope of Phase I) (PRMT1 [3]; [H4R3Me2a] 0.05 µM): 0.0106 ± 5.8e-05 s⁻¹ | b (amplitude, Phase II) (PRMT1 [3]; [H4R3Me2a] 0.05 µM): -0.1863 ± 1.43E-04 | k1 (rate constant, Phase I) (PRMT1 [3]; [H4R3Me2a] 0.05 µM): 0.06665 ± 3.21E-04 s^-1 | k2 (rate constant, Phase II) (PRMT1 [3]; [H4R3Me2a] 0.05 µM): 0.003437 ± 7.65E-06 s^-1 | -b·k2 (slope of Phase II) (PRMT1 [3]; [H4R3Me2a] 0.1 µM): 0.000608 ± 1.59e-06 s⁻¹ | a (amplitude, Phase I) (PRMT1 [3]; [H4R3Me2a] 0.1 µM): 0.1731 ± 3.91E-04 | a·k1 (slope of Phase I) (PRMT1 [3]; [H4R3Me2a] 0.1 µM): 0.00927 ± 4.52e-05 s⁻¹ | b (amplitude, Phase II) (PRMT1 [3]; [H4R3Me2a] 0.1 µM): -0.1960 ± 1.50E-04 | k1 (rate constant, Phase I) (PRMT1 [3]; [H4R3Me2a] 0.1 µM): 0.05356 ± 2.31E-04 s^-1 | k2 (rate constant, Phase II) (PRMT1 [3]; [H4R3Me2a] 0.1 µM): 0.003104 ± 7.73E-06 s^-1 | -b·k2 (slope of Phase II) (PRMT1 [3]; [H4R3Me2a] 0.25 µM): 0.000613 ± 1.75e-06 s⁻¹ | a (amplitude, Phase I) (PRMT1 [3]; [H4R3Me2a] 0.25 µM): 0.1692 ± 4.25E-04 | a·k1 (slope of Phase I) (PRMT1 [3]; [H4R3Me2a] 0.25 µM): 0.00914 ± 4.96e-05 s⁻¹ | b (amplitude, Phase II) (PRMT1 [3]; [H4R3Me2a] 0.25 µM): -0.1883 ± 1.69E-04 | k1 (rate constant, Phase I) (PRMT1 [3]; [H4R3Me2a] 0.25 µM): 0.054 ± 2.60E-04 s^-1 | k2 (rate constant, Phase II) (PRMT1 [3]; [H4R3Me2a] 0.25 µM): 0.003253 ± 8.83E-06 s^-1 | -b·k2 (slope of Phase II) (PRMT1 [3]; [H4R3Me2a] 0.5 µM): 0.000482 ± 2.06e-06 s⁻¹ | a (amplitude, Phase I) (PRMT1 [3]; [H4R3Me2a] 0.5 µM): 0.1282 ± 4.32E-04 | a·k1 (slope of Phase I) (PRMT1 [3]; [H4R3Me2a] 0.5 µM): 0.00584 ± 4.38e-05 s⁻¹ | b (amplitude, Phase II) (PRMT1 [3]; [H4R3Me2a] 0.5 µM): -0.1431 ± 2.10E-04 | k1 (rate constant, Phase I) (PRMT1 [3]; [H4R3Me2a] 0.5 µM): 0.04557 ± 3.06E-04 s^-1 | k2 (rate constant, Phase II) (PRMT1 [3]; [H4R3Me2a] 0.5 µM): 0.00337 ± 1.35E-05 s^-1 | -b·k2 (slope of Phase II) (PRMT1 [3]; [H4R3Me2a] 1 µM): 0.000195 ± 1.96e-06 s⁻¹ | a (amplitude, Phase I) (PRMT1 [3]; [H4R3Me2a] 1 µM): 0.1156 ± 3.30E-04 | a·k1 (slope of Phase I) (PRMT1 [3]; [H4R3Me2a] 1 µM): 0.0041 ± 2.6e-05 s⁻¹ | b (amplitude, Phase II) (PRMT1 [3]; [H4R3Me2a] 1 µM): -0.1396 ± 5.20E-04 | k1 (rate constant, Phase I) (PRMT1 [3]; [H4R3Me2a] 1 µM): 0.0355 ± 2.01E-04 s^-1 | k2 (rate constant, Phase II) (PRMT1 [3]; [H4R3Me2a] 1 µM): 0.001394 ± 1.31E-05 s^-1 | -b·k2 (slope of Phase II) (PRMT1 [3]; [H4R3Me2a] 2 µM): 0.000103 ± 2.25e-06 s⁻¹ | a (amplitude, Phase I) (PRMT1 [3]; [H4R3Me2a] 2 µM): 0.0723 ± 3.03E-04 | a·k1 (slope of Phase I) (PRMT1 [3]; [H4R3Me2a] 2 µM): 0.00179 ± 1.72e-05 s⁻¹ | b (amplitude, Phase II) (PRMT1 [3]; [H4R3Me2a] 2 µM): -0.07524 ± 5.65E-04 | k1 (rate constant, Phase I) (PRMT1 [3]; [H4R3Me2a] 2 µM): 0.02475 ± 2.15E-04 s^-1 | k2 (rate constant, Phase II) (PRMT1 [3]; [H4R3Me2a] 2 µM): 0.001365 ± 2.82E-05 s^-1

acetyl-SGRmeGKGGKGK(FL)GKGGAKRHRK [H4FLme1]
koff (PRMT1 [1]): 292 s⁻¹ | kon (PRMT1 [1]): 2.3e+07 M⁻¹ s⁻¹

From publication PMC5843908, “Detection of PRMT1 inhibitors with stopped flow fluorescence” (Signal Transduction and Targeted Therapy, 2018)
